Measurements: patent publication US20110207119A1, “METHODS FOR PREDICTING A CANCER PATIENT'S RESPONSE TO SUNITINIB” (priority 2010, published 2011)

System: primary breast carcinoma cultures
Assay: in vitro chemoresponse assay on primary breast carcinoma cultures (DAPI nuclei count, aAUC of dose response curve)
Assay type: cell-based
Conditions: 39 primary breast cancer cultures, single agent, 10 doses 0.108-55.3 μM, 72 hours
Method: After assay development, thirty-nine primary breast carcinoma cultures were treated with sunitinib at the doses shown in Table 1.
All specimens treated with the drug were confirmed to contain a majority of epithelial cells (>65%) via immunocytochemistry. A 10-dose range of drug concentrations was used to treat the cell line and breast specimens for 72 hours. After treatment, the cultures were fixed with ethanol, and stained with DAPI. Any cells remaining adherent after treatment were considered live, and the DAPI stained nuclei were counted. The resulting dose response curves were analyzed.
aAUC values were calculated, essentially as follows:
(Xi is the normalized cell count of dose i)

## CCN(CC)CCNC(=O)c1c(C)[nH]c(/C=C2\C(=O)Nc3ccc(F)cc32)c1C [sunitinib, Sunitinib]
3 of 39
  share of breast specimens responsive to sunitinib (aAUC of ≦7.85): 7.6%
8 of 39
  share of breast specimens with intermediate response (aAUC of 7.85-9.22): 20.5%
28 of 39
  share of breast specimens non-responsive to the drug (aAUC of ≧9.22): 71.7%
